Results: PubChem BioAssay (NCI)
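Where inhibition never reached the appropriate level, the endpoint shown equals the highest concentration tested. Otherwise, values were interpolated linearly from a five-concentration, 48-hour dose response in 96-well plates. The concentration for 50% growth inhibition is given as GI50. The concentration for full growth arrest is given as TGI.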

Key:
Experiment in all cases: NCI anticancer screen, dose series, 48 h
A549 NSCLC = system: A549 NSCLC
ACHN renal = system: ACHN renal
CAKI-1 renal = system: CAKI-1 renal
CCRF-CEM leukemia = system: CCRF-CEM leukemia
OVCAR-3 ovarian = system: OVCAR-3 ovarian
SF-268 CNS = system: SF-268 CNS
SN12C renal = system: SN12C renal
HS 578T breast = system: HS 578T breast
MDA-MB-435 = system: MDA-MB-435
NCI/ADR-RES ovarian = system: NCI/ADR-RES ovarian

| SMILES | TGI (A549 NSCLC) | TGI (ACHN renal) | TGI (CAKI-1 renal) | TGI (CCRF-CEM leukemia) | TGI (OVCAR-3 ovarian) | TGI (SF-268 CNS) | TGI (SN12C renal) | TGI (HS 578T breast) | TGI (MDA-MB-435) | TGI (NCI/ADR-RES ovarian) | GI50 (A549 NSCLC) | GI50 (ACHN renal) | GI50 (CAKI-1 renal) | GI50 (CCRF-CEM leukemia) | GI50 (MDA-MB-435) | GI50 (NCI/ADR-RES ovarian) | GI50 (OVCAR-3 ovarian) | GI50 (SF-268 CNS) | GI50 (SN12C renal) | GI50 (HS 578T breast) |
| --- | --- | --- | --- | --- | --- | --- | --- | --- | --- | --- | --- | --- | --- | --- | --- | --- | --- | --- | --- | --- |
| Cc1c(Cl)cccc1N1C(=O)C(Cl)=C(Cl)C1=O | > 100 µM | > 100 µM | > 80.9 µM | 27.8 µM | > 100 µM | > 100 µM | > 100 µM |  |  |  |  |  |  |  |  |  |  |  |  |  |
| CCOC(=O)C1(c2ccccc2)CCC(=O)CC1 | > 100 µM | > 100 µM | > 100 µM | > 100 µM | > 100 µM | > 100 µM | > 100 µM |  |  |  |  |  |  |  |  |  |  |  |  |  |
| C[C@H]1NC(=O)C2CCCCN2C(=O)CN(C)C(=O)CNC(=O)C2CCCCN2C(=O)[C@@H](NC(=O)c2nc3ccccc3cc2O)[C@@H](C)NC(=O)C2CCCCN2C(=O)CN(C)C(=O)CNC(=O)[C@@H]2CCCCN2C(=O)C1NC(=O)c1nc2ccccc2cc1O (stereo partly specified) | > 100 µM |  | 0.768 µM | 5.16 µM | 0.773 µM | 0.934 µM | > 100 µM |  |  |  |  |  |  |  |  |  |  |  |  |  |
| Cc1ccc(NC(=O)C2C(=O)N(c3ccc(C)c(C)c3)C(=O)C2N=N)cc1C (stereo unspecified) | > 100 µM | > 100 µM | > 100 µM |  | > 100 µM | > 100 µM | > 100 µM |  |  |  |  |  |  |  |  |  |  |  |  |  |
| O=C(Nc1cc(Cl)ccc1Cl)c1cc2cccc(Cl)c2oc1=O | > 100 µM | > 100 µM |  | > 100 µM | > 100 µM |  | > 100 µM |  |  |  |  |  |  |  |  |  |  |  |  |  |
| CC(=O)OC12c3ccccc3-c3ccccc3C1C1C(=O)N(C)C(=O)C12Cl (stereo unspecified) |  | > 10 µM | > 10 µM | > 10 µM | > 10 µM | > 10 µM | > 10 µM | > 10 µM | > 10 µM | > 10 µM |  |  |  |  |  |  |  |  |  |  |
| CCc1c(OC(C)=O)c2c(NC3OC(COC(C)=O)C(OC(C)=O)C(OC(C)=O)C3OC(C)=O)nc(OC)nc2oc1=O (stereo unspecified) | > 100 µM | > 100 µM | > 100 µM | > 100 µM | > 100 µM |  | > 100 µM |  |  |  |  |  |  |  |  |  |  |  |  |  |
| O=c1cc2oc3cc(O)c(O)cc3c(-c3ccccc3O)c-2cc1O | > 100 µM | > 100 µM | 11.1 µM | > 100 µM | > 100 µM | > 100 µM | > 100 µM |  | > 100 µM | 42 µM | 28.5 µM | 4.13 µM | 3.04 µM | 7.29 µM | 4.57 µM | 8.16 µM | 9.41 µM | 5.53 µM | 10.7 µM |  |
| COc1ccc(C(O)c2nccn2C)c(OC)c1 (stereo unspecified) | > 100 µM | > 100 µM | > 100 µM | > 100 µM | > 100 µM | > 100 µM | > 100 µM |  |  | > 100 µM |  |  |  |  |  |  |  |  |  |  |
| CCc1cccc(C)c1NC(=O)C(=O)Cc1nc2ccccc2o1 |  | > 100 µM | > 100 µM | > 100 µM | > 100 µM | > 100 µM | > 100 µM |  |  |  |  |  |  |  |  |  |  |  |  |  |
| COC(=O)[C@]1(C)CCCC2(C)C1CC[C@H]1C=C(C)[C@H]3CCC12C3 (stereo partly specified) | > 100 µM | > 100 µM | > 100 µM | > 100 µM | > 100 µM | > 100 µM | > 100 µM |  |  |  |  |  |  |  |  |  |  |  |  |  |
| COc1ccc2oc(-c3cccnc3)cc(=O)c2c1 |  | > 100 µM | > 100 µM | > 100 µM | > 100 µM | > 100 µM | > 100 µM |  |  |  |  |  |  |  |  |  |  |  |  |  |
| CCOC(=O)C(=Cc1cccc(Cl)c1)C(=O)OCC | 24.6 µM | 4.23 µM | 5.45 µM |  | 3.6 µM | 7.96 µM | 3.54 µM | 29.8 µM | 5.04 µM | 16.9 µM | 11.4 µM | 1.89 µM | 2.19 µM |  | 2.07 µM | 3.3 µM | 1.86 µM | 2.54 µM | 1.65 µM | 4.29 µM |
| CCOc1ccc2c(c1)[n+]([O-])c(-c1ccccc1Cl)c(N)[n+]2[O-] | > 100 µM | > 100 µM | > 100 µM | > 100 µM | > 100 µM | > 100 µM | > 100 µM |  |  |  |  |  |  |  |  |  |  |  |  |  |
| CC1=CC(=O)[C@@H](O)[C@]2(C)[C@H]3[C@@]4(O)OC[C@]35[C@H]([C@@H](C)[C@H]4O)[C@@H](O)C(=O)O[C@@H]5C[C@@H]12 | 15.5 µM | 5.4 µM | 5.3 µM | 1.45 µM | 2.11 µM | 0.778 µM |  | 1.19 µM | 1.73 µM | 22.6 µM |  |  |  |  |  |  |  |  |  |  |
| COC1[C@@H](OC(C)=O)[C@@H](NC(=O)C(Cl)(Cl)Cl)C(I)[C@@H](N2C(=O)c3ccccc3C2=O)[C@H]1OC (stereo partly specified) | > 100 µM | > 100 µM |  | > 100 µM |  | > 100 µM | > 100 µM |  |  |  |  |  |  |  |  |  |  |  |  |  |
| CCOc1ccc(N2C(=O)/C(=C/c3ccc(N(CCC#N)CCC#N)cc3)N=C2c2cc([N+](=O)[O-])ccc2Cl)cc1 | > 100 µM | > 100 µM | 87.1 µM |  | 56.5 µM | > 100 µM | > 100 µM |  |  |  |  |  |  |  |  |  |  |  |  |  |
| O=C1NC(=S)NNC12c1ccccc1-c1ccccc12 | > 10 µM |  | > 10 µM | > 10 µM |  | > 10 µM | > 10 µM | > 10 µM |  | > 10 µM |  |  |  |  |  |  |  |  |  |  |
| O=[N+]([O-])c1ccc(-n2nnc(C3=NCCN3)c2-c2ccc(Cl)cc2)cc1 | > 100 µM | > 100 µM | > 100 µM | > 100 µM | > 100 µM | > 100 µM | > 100 µM |  |  |  |  |  |  |  |  |  |  |  |  |  |
| COc1cccc(/C=N/[N-]C(=O)c2ccncc2)c1[O-].[Cu+2].[OH3+] | > 100 µM | > 100 µM | > 100 µM | > 100 µM | > 100 µM | > 100 µM | > 100 µM |  |  |  | 53.7 µM | 90.8 µM | > 100 µM | 27.9 µM |  |  | 33.7 µM | 28 µM | 49.7 µM |  |
| O=C1c2ccccc2C2(O)c3cc4ccccc4cc3OC12O (stereo unspecified) | > 100 µM | > 100 µM | > 100 µM | > 100 µM | > 100 µM | > 100 µM | > 100 µM |  |  |  |  |  |  |  |  |  |  |  |  |  |
| Cc1csc(Nc2nc(-c3cccc(Br)c3)nc(C(Cl)(Cl)Cl)n2)n1 | 7.28 µM | 2.97 µM | > 100 µM | > 100 µM | 3.24 µM | > 100 µM |  | > 100 µM | > 100 µM | > 100 µM | 1.61 µM | 0.475 µM | 2.41 µM | > 100 µM | 6.07 µM | 5.22 µM | 1.11 µM | 4.65 µM |  | 2.94 µM |
| Cc1ccc(S(=O)(=O)N/N=C/c2oc(-c3ccncc3)c(-c3ccncc3)c2[N+](=O)[O-])cc1 | > 100 µM | > 100 µM | > 100 µM | > 100 µM | > 100 µM | > 100 µM | > 100 µM |  |  |  |  |  |  |  |  |  |  |  |  |  |
